Here are results for 4 compounds from patent publication US11530226B2, “Azepane inhibitors of menin-MLL interaction” (Janssen Pharmaceutica NV, priority 2016, dated 2022).

SMILES strings stand for the structures. Where two headings read alike, the source gives them in different places.

One may read the IC50 as the concentration that inhibits the measured activity by half.

One assay deals with MV-4-1 1 cells (MLL-AF4). Description: Proliferation assay (spheroid-like growth, 8 d, live-cell imaging), MV-4-11. The format is cell-based, human. Conditions: MV-4-11 cells, absolute IC50 from AUC of confluence, read-out: (3) Spheroid assay MV-4-11 (IC50 (μM)). A digest of the protocol:
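Cells seeded in ultra-low attachment wells (1,500 MV-4-11, 300 MOLM14, 750 K562) with compound, 0.3% DMSO, grown 8 d at 37° C. Confluence imaged every four hours; AUC of confluence versus time, relative to vehicle, fitted for absolute IC50.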

Assay [1] addresses T1, terbium chelate-labeled menin / FITC-MBM1 peptide (Menin/MLL) (Homo sapiens, UniProt O00255, T541A).
T1 construct: Menin (a. a. l-610-6×his tag) was labeled with terbium cryptate as follows
T1 sequence (O00255 with tags, fused parts or gaps T541A): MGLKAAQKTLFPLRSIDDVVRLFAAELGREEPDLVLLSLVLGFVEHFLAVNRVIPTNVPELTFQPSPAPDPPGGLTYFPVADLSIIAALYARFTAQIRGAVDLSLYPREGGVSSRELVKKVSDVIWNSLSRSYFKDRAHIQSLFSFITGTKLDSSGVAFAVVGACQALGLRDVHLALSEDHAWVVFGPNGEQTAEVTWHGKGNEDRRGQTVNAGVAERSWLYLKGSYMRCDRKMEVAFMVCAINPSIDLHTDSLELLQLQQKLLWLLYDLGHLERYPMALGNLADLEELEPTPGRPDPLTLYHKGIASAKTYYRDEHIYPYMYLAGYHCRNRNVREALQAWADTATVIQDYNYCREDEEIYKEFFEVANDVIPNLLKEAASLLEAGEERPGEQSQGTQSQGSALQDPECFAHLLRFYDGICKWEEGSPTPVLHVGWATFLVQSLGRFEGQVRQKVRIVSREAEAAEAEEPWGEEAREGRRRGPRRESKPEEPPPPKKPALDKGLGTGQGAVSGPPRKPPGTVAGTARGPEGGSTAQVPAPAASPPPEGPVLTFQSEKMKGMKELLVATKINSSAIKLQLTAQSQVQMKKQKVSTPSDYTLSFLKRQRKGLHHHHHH
As to the kind of experiment: Menin/MLL homogenous time-resolved fluorescence (HTRF) assay. The assay is classed as binding. The note with it: read-out: (2) Menin HTRF assay (IC50 (nM)). A digest of the protocol:
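Terbium cryptate-labeled menin (aa 1-610, 6×His), 100 pM, preincubated 5 min with compound, then 75 nM FITC-MBM1 peptide added for 15 min at ambient temperature. Buffer: 40 mM Tris pH 7.5, 50 mM NaCl, 1 mM DTT, 0.05% Pluronic F-127, 0.5% DMSO. HTRF 520/490 ratio; 11-point threefold titration from 25 μM, IC50 from % inhibition curve.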
For orientation: In TR-FRET formats the signal depends on donor and acceptor labels being close together.

In the case of `CC(C)CNC1CCCN(c2ncnc3sc(CC(F)(F)F)cc23)CC1` (single isomer, unassigned) [Compound B1A, N-isobutyl-1-(6-(2,2,2-trifluoroethyl)thieno[2,3-d]pyrimidin-4-yl)azepan-4-amine], the IC50 in the assay on MV-4-1 1 cells (MLL-AF4) turned out to be 2.5 µM; in assay [1], 50 nM.

Regarding `CC(C)CNC1CCCN(c2ncnc3sc(CC(F)(F)F)cc23)CC1` (single isomer, unassigned) [Compound B1B, N-isobutyl-1-(6-(2,2,2-trifluoroethyl)thieno[2,3-d]pyrimidin-4-yl)azepan-4-amine], the IC50 in the assay on MV-4-1 1 cells (MLL-AF4) is 8.9 µM; in assay [1], 788 nM.

As for `FC(F)(F)Cc1cc2c(N3CCC[C@@H](NCc4ccccc4)CC3)ncnc2s1` [Compound 3, (R)N-benzyl-1-(6-(2,2,2-trifluoroethyl)thieno[2,3-d]pyrimidin-4-yl)azepan-4-amine], the IC50 with MV-4-1 1 cells (MLL-AF4) (Homo sapiens, MV4-11, 192 h) was 0.44 µM; in assay [1] it was 14 nM.

On to `FC(F)(F)Cc1cc2c(N3CCC[C@H](NCc4ccccc4)CC3)ncnc2s1` [Compound 4, (S)-N-benzyl-1-(6-(2,2,2-trifluoroethyl)thieno[2,3-d]pyrimidin-4-yl)azepan-4-amine], for which the IC50 came out at 2.9 µM in the assay with MV-4-1 1 cells (MLL-AF4) (Homo sapiens, MV4-11, 192 h) and 330 nM in assay [1].
